The text below walks through data of ChEMBL document CHEMBL1201862, “PubChem BioAssay data set” (2004).

Test systems include M14; HOP-62; HT-29; MOLT-4; SNB-75; HCT-116; A498; SK-MEL-2; KM12; TK-10; UACC-62; COLO 205; UO-31; SR; IGROV-1; HCT-15; CCRF-CEM; Malme-3M.
What all share (assay): DTP human tumour cell line panel, 48 h

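Cells were grown in 96-well plates and exposed to each compound for 48 hours at five concentrations; endpoints were interpolated linearly between bracketing concentrations, or set to the highest concentration if not reached. The concentration for 50% growth inhibition is given as GI50.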 Active and inactive are the calls of the source. Rule as the data show it: active = GI50 up to about 1.1 µM and inactive = higher.

Turning to `C/C(CC(=O)NC1=CC=C(NC(=O)C/C(C)=N\Nc2ccccc2)CC1)=N/Nc1ccccc1`, the GI50 in the test on M14, with HOP-62, in the test with HT-29, with MOLT-4, in the test on SNB-75 and with HCT-116 was > 100 µM (inactive) throughout. In addition, the GI50 (in general, the concentration giving 50% growth inhibition) with A498 was > 100 µM (inactive); in the test with SK-MEL-2 it was > 100 µM (inactive); in the test with KM12 it was > 100 µM (inactive); in the test on TK-10, > 100 µM (inactive); in the test with UACC-62 it was > 100 µM (inactive); in the test with COLO 205, 27.1 µM (inactive). The GI50 in the test with UO-31 is > 100 µM (inactive); with SR it was 37.8 µM (inactive); with IGROV-1 it was > 100 µM (inactive); in the test on HCT-15 it was 29.7 µM; in the test on CCRF-CEM, > 100 µM (inactive); with Malme-3M, > 100 µM (inactive).

Take `Nc1nncc2c1c(Br)cn2C1OC(CO)C(O)C1O` (configuration not stated): the GI50 with M14 is 23.9 µM (inactive); in the test with HOP-62 it was 22 µM (inactive); in the test with HT-29, 8.39 µM (inactive); in the test on MOLT-4, 2.91 µM (inactive); in the test with SNB-75, 13.7 µM (inactive); in the test on HCT-116 it was 9.68 µM (inactive). The GI50 in the test on A498 is > 67.6 µM (inactive); with SK-MEL-2, > 40.8 µM (inactive); in the test with KM12 it was 43.9 µM (inactive); in the test with TK-10, 51.4 µM (inactive); in the test with UACC-62, 56.9 µM (inactive); in the test on COLO 205 it was 48.6 µM (inactive). Besides, the GI50 in the test on UO-31 is > 37.9 µM (inactive); in the test on SR, 2.99 µM (inactive); in the test on IGROV-1, 25.1 µM (inactive); in the test on HCT-15, 4.23 µM; in the test on CCRF-CEM it was 2.33 µM (inactive); in the test with Malme-3M, > 79.1 µM (inactive).

With `O=C(/C=C/c1ccccc1)NC1C=Nc2ccc([N+](=O)[O-])cc2NC1=O` (configuration not stated), the GI50 is 52.8 µM (inactive) in the test on M14; 84.3 µM (inactive) in the test with HOP-62; 73.1 µM (inactive) in the test on HT-29; 53.8 µM (inactive) in the test on MOLT-4; > 100 µM (inactive) in the test with SNB-75; 96.6 µM (inactive) in the test on HCT-116. Further, the GI50 is > 100 µM (inactive) with A498; 25.7 µM (inactive) in the test with SK-MEL-2; 18.1 µM (inactive) in the test with KM12; > 100 µM (inactive) with TK-10; 44.1 µM (inactive) in the test on UACC-62; 29 µM (inactive) in the test with COLO 205. The GI50 was 48.9 µM (inactive) with UO-31; > 100 µM (inactive) in the test with SR; > 100 µM (inactive) with IGROV-1; 23.2 µM in the test on HCT-15; 17.4 µM (inactive) in the test with CCRF-CEM; > 100 µM (inactive) in the test on Malme-3M.

Consider `COCCCNC(=O)CC(=O)NCCCOC`, for which the GI50 in the test with M14, in the test with HOP-62, with HT-29, with MOLT-4, with HCT-116 and in the test with A498 was > 100 µM (inactive) in each case. Besides, the GI50 in the test on SK-MEL-2, with KM12, in the test on TK-10, in the test with UACC-62, with COLO 205 and in the test on UO-31 was > 100 µM (inactive) throughout. Also, the GI50 in the test with SR was > 100 µM (inactive); in the test with IGROV-1, > 100 µM (inactive); with HCT-15, > 100 µM; in the test on CCRF-CEM, > 100 µM (inactive); with Malme-3M, > 100 µM (inactive).

Take `COc1cc2c(cc1OC)C1Cc3cc(OC)c(OC)cc3N1CC2` (configuration not stated): the GI50 in the test with M14 was 20 µM (inactive); with HOP-62, 27.6 µM (inactive); in the test with HT-29, 40 µM (inactive); in the test with MOLT-4, 30.8 µM (inactive); in the test on SNB-75, 21.4 µM (inactive); in the test on HCT-116 it was 31.1 µM (inactive). For the same compound, the GI50 in the test on A498 is 40.5 µM (inactive); in the test on SK-MEL-2 it was 52.4 µM (inactive); in the test with KM12, 28.6 µM (inactive); in the test on TK-10 it was 23 µM (inactive); in the test with UACC-62, 26.1 µM (inactive); in the test on COLO 205 it was 20.5 µM (inactive). Also, the GI50 in the test on UO-31 is 36.9 µM (inactive); with SR it was 35.9 µM (inactive); with IGROV-1, 52.6 µM (inactive); in the test on CCRF-CEM it was 43.5 µM (inactive); in the test with Malme-3M, 20.9 µM (inactive).

For `CN(C)c1n/c(=N/c2ccc3ccccc3c2)ss1`, the GI50 is 24 µM (inactive) with M14; 41.8 µM (inactive) in the test on HOP-62; 4.45 µM (inactive) in the test on MOLT-4; 20.8 µM (inactive) with SNB-75; 13.8 µM (inactive) in the test on HCT-116; 30.6 µM (inactive) with A498. Also, the GI50 in the test with SK-MEL-2 is 21.3 µM (inactive); in the test with KM12, 15.6 µM (inactive); with TK-10, 14.1 µM (inactive); in the test with UACC-62, 21.5 µM (inactive); in the test on COLO 205, 11.2 µM (inactive); with UO-31 it was 23.4 µM (inactive). The GI50 with SR was 11.6 µM (inactive); in the test with IGROV-1, 19 µM (inactive); in the test on HCT-15, 17.3 µM; with CCRF-CEM, 7.05 µM (inactive); with Malme-3M, 24.4 µM (inactive).

`CCOC(=O)C(C(=O)Cc1ccccc1)c1ccccc1` (configuration not stated): the GI50 was > 100 µM (inactive) in the test on M14; > 100 µM (inactive) in the test with HOP-62; > 100 µM (inactive) with HT-29; 87.9 µM (inactive) with MOLT-4; 80 µM (inactive) in the test with SNB-75; > 100 µM (inactive) in the test on HCT-116. Further, the GI50 in the test on SK-MEL-2, with KM12, in the test on TK-10, in the test on UACC-62, in the test with COLO 205 and with UO-31 was > 100 µM (inactive) each time. Besides, the GI50 in the test with SR was > 100 µM (inactive); in the test on IGROV-1, > 100 µM (inactive); in the test with HCT-15 it was > 100 µM; in the test with CCRF-CEM, > 100 µM (inactive); with Malme-3M, > 100 µM (inactive).

On to `CC(=O)c1ccc(NC(=O)C(=O)Nn2c(S)nc3ccccc3c2=O)cc1`, for which the GI50 in the test with M14, in the test with HOP-62, in the test with HT-29, with MOLT-4, in the test with SNB-75 and in the test on HCT-116 was > 100 µM (inactive) each time. Further, the GI50 in the test with A498, with SK-MEL-2, in the test with KM12, in the test on TK-10, in the test on UACC-62 and with COLO 205 was > 100 µM (inactive) each time. In addition, the GI50 in the test on UO-31 was > 100 µM (inactive); in the test on SR, > 100 µM (inactive); in the test with IGROV-1 it was > 100 µM (inactive); with HCT-15, > 100 µM; in the test with Malme-3M, > 100 µM (inactive).

Take `CCOC(=O)N1N=NC2C3OC(C[C@@]3(C#N)OC(C)=O)[C@H]21` (some centres not stated): the GI50 in the test on M14, in the test with HOP-62, in the test with HT-29, in the test on MOLT-4, with SNB-75 and in the test on HCT-116 was > 100 µM (inactive) each time. For the same compound, the GI50 with SK-MEL-2, in the test on KM12, in the test on TK-10, in the test with UACC-62, in the test with COLO 205 and in the test on UO-31 was > 100 µM (inactive) each time. Moreover, the GI50 in the test on SR was > 100 µM (inactive); in the test on IGROV-1, > 100 µM (inactive); with HCT-15, > 100 µM; with CCRF-CEM it was > 100 µM (inactive); in the test on Malme-3M it was > 100 µM (inactive).

`CC1(C)C2CCC3(C2)CS(=O)(=O)N2OC231` (configuration not stated): the GI50 was 16.2 µM (inactive) in the test with M14; 79.8 µM (inactive) with HOP-62; 15.2 µM (inactive) in the test with HT-29; 17 µM (inactive) in the test with SNB-75; 31.3 µM (inactive) in the test on HCT-116; 25.2 µM (inactive) in the test with A498. In addition, the GI50 in the test on SK-MEL-2 was 21.1 µM (inactive); in the test with KM12, 19.6 µM (inactive); in the test with TK-10 it was 18 µM (inactive); with UACC-62 it was 17.5 µM (inactive); in the test on COLO 205 it was 17.9 µM (inactive); in the test on UO-31, 16.1 µM (inactive). For the same compound, the GI50 was > 100 µM (inactive) in the test on SR; 19.5 µM (inactive) in the test on IGROV-1; 16.1 µM with HCT-15; 24.5 µM (inactive) in the test with CCRF-CEM; 15.5 µM (inactive) with Malme-3M.

With `CC(=O)c1cccc(NC(=O)/C(=N\NC(C)(C)C)c2c(O)c3ccccc3oc2=O)c1`, the GI50 in the test with M14 was > 100 µM (inactive); in the test with HOP-62, > 100 µM (inactive); with HT-29 it was 53.2 µM (inactive); in the test on MOLT-4 it was > 100 µM (inactive); in the test on SNB-75 it was 39.2 µM (inactive); with HCT-116 it was > 100 µM (inactive). In addition, the GI50 in the test on SK-MEL-2, in the test with KM12, in the test on TK-10, with UACC-62, with COLO 205 and in the test on UO-31 was > 100 µM (inactive) each time. For the same compound, the GI50 in the test on SR was > 100 µM (inactive); with IGROV-1 it was > 100 µM (inactive); with HCT-15, > 100 µM; in the test with CCRF-CEM, > 100 µM (inactive); in the test on Malme-3M it was > 100 µM (inactive).

`Cc1ccc(C2=Nc3ccccc3[S+]([O-])C(c3ccc4c(c3)OCO4)C2)cc1` (configuration not stated): the GI50 in the test on M14 is 17.6 µM (inactive); in the test on HOP-62, 39.4 µM (inactive); in the test with HT-29 it was 17.7 µM (inactive); with MOLT-4, 23.9 µM (inactive); in the test on SNB-75, 88.3 µM (inactive); with HCT-116 it was 16.6 µM (inactive). Also, the GI50 in the test with A498 is 18.2 µM (inactive); with SK-MEL-2 it was 19 µM (inactive); with KM12, 18.2 µM (inactive); in the test on TK-10, 44.7 µM (inactive); with UACC-62 it was 18.3 µM (inactive); with COLO 205, 29.6 µM (inactive). For the same compound, the GI50 was 40.8 µM (inactive) in the test on UO-31; 22.2 µM (inactive) with SR; 34.8 µM (inactive) in the test with IGROV-1; 26.2 µM (inactive) with CCRF-CEM; 33.8 µM (inactive) with Malme-3M.
